Test results: patent US10710951B2, “Pharmaceutical composition containing verbenone derivative for treating or preventing neurodegenerative disease” (KOREA UNIVERSITY RESEARCH AND BUSINESS FOUNDATION, priority 2012, dated 2020)

Assays:
cortical neurons [1] = assay: NMDA-induced excitotoxicity, LDH release; assay type: cell-based, SD rats; design: dose or concentration left out as unconfirmed; settings: cultured cortical neuronal cells; sample 30 min before NMDA; lower than MK-801; FIG. 2
Description: Cortical neurons (5×10^5 cells/ml) were isolated from fetal SD rats (16-17 days). Specifically, brain cortex was cut, and cells were isolated from the tissue by repeated trituration using a Pasteur pipette in buffer (Hanks' Balanced Salt Solution, HBSS). The cell suspension (1.8×10^3 cells/mm^2) was dispensed on a plate pretreated with poly-D-lysine ([…])/laminin ([…]). The cells were placed in 10% FBS-containing NBM medium, and incubated in a […]/5% CO2 atmosphere at 37° C. After 15-16 days of the incubation, the experiment was performed.
After incubation on the plate for 15-18 days, the cortical neurons were exposed to NMDA ([…]) in a solution (Mg^2+-free Earle's balanced salt solution (EBSS); containing 1.8 mM CaCl2 and 10 mM glycine) for 10 minutes. After exposure, the cells were washed with MgSO4-containing EBSS solution, and incubated in 25 mmol/L glucose-containing DMEM medium in a 5% CO2 incubator at 37° C. 30 Minutes before treatment with NMDA, the cells were treated with each sample […].
In order to measure cell injury or cell death, the amount of LDH released into the medium was measured using a cell viability measurement kit (Sigma-Aldrich, St. Louis, Mo.). Cell viability was expressed as the percentage of LDH relative to the total cellular LDH level measured in sister cultures lysed by freezing-thawing after the experiment.

cortical neurons [2] = assay: Intracellular levels (DCF fluorescence) of reactive oxygen species after OGD/reoxygenation; assay type: cell-based, SD rats; settings: FIG. 3
Description: In order to examine the direct radical scavenging activities of the samples, at 1 hour after reoxygenation, the cells were stained with the fluorescent probe H2DCF-DA (2,7-dihydroichlorofluorescein diacetate) that is widely used to measure intracellular oxidative stress. After 2 hours, the cells were washed in EBSS buffer (containing 25 mM glucose, 1.8 mM CaCal2, 1.2 mM MgSO4 and 2.5 mM probenecid (pH7.4)), and the fluorescence of DCF was measured with a fluorescence microplate reader (SpectraMax GeminiEM; Ex=485 nm, Em=530 nm) or a fluorescence microscope (DM IL HC Fluo, Leica, Wetzlar, Germany) equipped with a digital camera (DFC420C, Leica, Wetzlar Germany). The fluorescence intensity was compensated with autofluorescence (i.e., the fluorescence of cells not loaded with H2DCF-DA).

[3] = DPPH assay (ability to scavenge nitrogen radicals); design: DPPH assay % inhibition: concentration or dose not given beside the values
Description: The samples were mixed with DPPH (23.6 μg/ml, in ethanol), and incubated in dark at 37° C. for 30 minutes. The DPPH absorbance reduced by each sample was measured at 517 nm. Vitamin C (Sigma-Aldrich, St. Louis, Mo.) was used as a control, and the DPPH inhibition value (%) was calculated using the following equation: Scavenging activity (%)=[Absmax(Vit.C)−Abssample]/[Absmax(Vit.C)−Absmin(Vit.C)]×100. Equation 1
The antioxidant activities of the verbenone derivatives of the present invention were measured by the following two different chemical reactions: (1) a single electron transfer-based assay that is a […] [DPPH] assay that measures a decrease in DPPH acting as a free radical generator and a termination probe; and (2) a hydrogen atom transfer assay that is an oxygen radical absorbance capacity [[…]] assay that measures the competitive reaction kinetics of a peroxyl radical generator (AAPH; 2,2′-azobis-(2-methylpropionamide)-dihydrochloride) and each sample acting as an antioxidant for oxidizable fluorescent probe (fluorescein).

With `COc1cc(C=CC2=CC(=O)[C@H]3C[C@@H]2C3(C)C)cc(O)c1O` [Compound 3f, (1S,5R)-4-(3,4-dihydroxy-5-methoxystyryl)-6,6-dimethylbicyclo[3.1.1]hept-3-en-2-one] the NMDA-induced neuronal injury (cortical neurons [1]) was “significantly reduced NMDA-induced neuronal injury”, the “OGD-induced intracellular oxidative stress (DCF fluorescence)” value (cortical neurons [2]) was “reduced OGD-induced intracellular oxidative stress” and the “DPPH scavenging activity (in words)” value ([3]; compared to vitamin C at the same concentration) was “stronger scavenging activity compared to vitamin C”. The “DPPH assay % inhibition” value ([3]; relative to vitamin C (Equation 1)) was 83.64 ± 6.19%.
